# Values quoted from earlier work in patent US20160022811A1 (Teva Pharmaceutical Industries Ltd., priority 2013, published 2016).
# Test system: relapsing-remitting MS (RRMS)
# Details: registration trials, comparison with placebo
substance,measurement,value
"L-glutamic acid polymer with L-alanine, L-lysine, L-tyrosine, acetate (salt) [glatiramer acetate]",reduction of relapse rate,about one third
